Laboratory results taken from patent publication US10568939B2, “Composition and method for improving sleep duration and quality” (Board of Supervisors of Louisiana State University and …, priority 2016, dated 2020).

Columns and labels:
[1] = test system: Janus kinase 3 (Jak3); assay: Inhibition of Janus kinase 3 (Jak3) expression in LPS-stimulated HT-29 cells; assay type: cell-based; conditions: HT-29 cells stimulated by LPS; EGCG 20, 35, 50 μM; CE from 3, 6, 10 g light roasted chicory; combinations E1C1, E2C2, E3C3; triplicates; FIG. 2
Description: (§1) A series of in vitro tests were conducted, using levels of components that would be expected to approximate the concentrations that would be seen in vivo following oral consumption of 2 fluid ounces of the novel composition by a 70 kilogram individual.
(§2) • a. Inhibition of Janus kinase 3 (Jak3) by EGCG, CE, or a mixture of EGCG and CE. Jak3 is expressed solely in immune cells. Jak3 expression is an upstream event for the activation of TNF-α and subsequent cytokines such as IL-6. HT-29 colon cancer cells in T-75 flasks were stimulated by LPS (control). HT-29 cells in T-75 flasks were also stimulated by LPS and treated with EGCG (Treatment 1=20 μM (E1), Treatment 2=35 μM (E2), or Treatment 3=50 μM (E3)), CE (extract from 3 g (C1), 6 g (C2), or 10 g (C3) of light roasted chicory), or combinations of the respective low, medium, and high concentrations of EGCG and CE (E1C1, E2C2, or E3C3). C1, C2, or C3 concentrations approximated the levels that would be expected following consumption of 2 fluid ounces of the novel composition by a 70 kilogram individual. […] The effects of the treatments on histamine activity were determined by the inhibition of COX-2 expression. […] The effective concentrations of TNF-α, IL-1β or IL-6 in supernatants were calculated using a standard curve developed using known standards of TNF-α, IL-1β or IL-6. […]

[2] = test system: COX-2 expression; assay: Anti-histamine activity: inhibition of COX-2 expression in histamine-treated HeLa cells; assay type: cell-based; conditions: 1 μmol/L histamine, 18 h, EGCG 20, 35, 50 μM, positive controls mepyramine maleate and JNJ-7777120, FIG. 3
Description: as §1, §2

[3] = molecular target: T1, TNF-α (Homo sapiens, UniProt P01375); assay: TNF-α level by ELISA, supernatants of LPS-treated HT-29 cell cultures; assay type: cell-based; conditions: HT-29 supernatants, EGCG 20, 35, 50 μM, FIG. 4
T1 construct: TNF-alpha levels in HT-29 cell culture treated with LPS; endogenous in cells; host or cells: HT-29 (culture supernatant)
Description: as §1, §2

[4] = molecular target: T2, IL-1β (Homo sapiens, UniProt P01584); assay: IL-1β level by ELISA, supernatants of LPS-treated HT-29 cell cultures; assay type: cell-based; conditions: HT-29 supernatants, EGCG 20, 35, 50 μM, FIG. 5
T2 construct: IL-1β levels in HT-29 cell culture treated with LPS; endogenous in cells; host or cells: HT-29 (culture supernatant)
Description: as §1, §2

[5] = molecular target: T3, IL-6 (Homo sapiens, UniProt P05231); assay: IL-6 level by ELISA, supernatants of LPS-treated HT-29 cell cultures; assay type: cell-based; conditions: HT-29 supernatants, EGCG 20, 35, 50 μM, FIG. 6
T3 construct: IL-6 levels in HT-29 cell culture treated with LPS; endogenous in cells; host or cells: HT-29 (culture supernatant)
Description: as §1, §2

[6] = Effect of individual components alone versus the novel combination on sleep; assay type: in vivo, human; conditions: component alone or novel combination

T3 sequence (P05231 30-212): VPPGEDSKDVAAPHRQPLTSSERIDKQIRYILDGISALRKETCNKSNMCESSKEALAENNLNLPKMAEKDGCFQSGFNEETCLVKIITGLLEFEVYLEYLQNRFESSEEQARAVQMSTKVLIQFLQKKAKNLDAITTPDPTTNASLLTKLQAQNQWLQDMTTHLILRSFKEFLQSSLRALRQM
T2 sequence (P01584 117-269): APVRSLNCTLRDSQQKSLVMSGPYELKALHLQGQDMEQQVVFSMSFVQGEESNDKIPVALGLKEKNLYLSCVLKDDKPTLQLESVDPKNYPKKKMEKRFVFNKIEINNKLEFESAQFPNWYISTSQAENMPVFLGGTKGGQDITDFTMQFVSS
T1 sequence (P01375 77-233 limits assumed): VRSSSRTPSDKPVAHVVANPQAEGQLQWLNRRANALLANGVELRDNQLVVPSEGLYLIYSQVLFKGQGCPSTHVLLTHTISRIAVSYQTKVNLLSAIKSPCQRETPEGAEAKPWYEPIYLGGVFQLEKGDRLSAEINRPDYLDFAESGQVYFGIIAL

SMILES | Jak3 expression [1] | COX-2 expression (anti-histamine activity) [2] | TNF-α activity/level [3] | IL-1β activity/level [4] | IL-6 activity/level [5] | Sleep after awakening in the middle of the night [6] | Sleep onset, depth, efficiency, duration [6]
O=C(O[C@@H]1Cc2c(O)cc(O)cc2O[C@@H]1c1cc(O)c(O)c(O)c1)c1cc(O)c(O)c(O)c1 [EGCG, Epigallocatechin gallate] | inhibited Jak3 expression in a dose-dependent manner | inhibited COX-2 expression in a dose-dependent manner, although not as strongly as did the positive controls | inhibited the activity of each of TNF-α, IL-1β and IL-6 in a dose-dependent manner | inhibited the activity of each of TNF-α, IL-1β and IL-6 in a dose-dependent manner | inhibited the activity of each of TNF-α, IL-1β and IL-6 in a dose-dependent manner | does not improve sleep after awakening in the middle of the night | does not enhance sleep onset, depth, efficiency, or duration
CCNC(=O)CC[C@H](N)C(=O)O [Theanine] | – | – | – | – | – | does not improve sleep after awakening in the middle of the night | does not enhance sleep onset, depth, efficiency, or duration
